Laboratory results: PubChem BioAssay (NCI)
Values joined by “and” are separate entries in the source; they are usually repeats but may differ in a detail not shown here. Equal entries are not always repeated.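 Cultured in 96-well plates, cells were exposed to test compound for 48 hours across five concentrations. Here, GI50 denotes the concentration required for 50% inhibition of growth. TGI marks complete inhibition of growth.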

What was measured:
Test in all cases: DTP human tumour cell line panel, 48 h
786-0 renal = test system: 786-0 renal
A549 NSCLC = test system: A549 NSCLC
CCRF-CEM leukemia = test system: CCRF-CEM leukemia
HCC-2998 colon = test system: HCC-2998 colon
LOX IMVI melanoma = test system: LOX IMVI melanoma
M14 melanoma = test system: M14 melanoma
NCI-H460 lung = test system: NCI-H460 lung
NCI-H522 lung = test system: NCI-H522 lung
SK-MEL-5 melanoma = test system: SK-MEL-5 melanoma
SN12C renal = test system: SN12C renal

SMILES: C[n+]1c2ccccc2cc2c(CNC(CCCN=C(N)N)C(=O)O)cccc21 (stereo unspecified)
- GI50 (786-0 renal): 0.443 µM
- TGI (786-0 renal): 2.19 µM and 1.59 µM
- GI50 (A549 NSCLC): 4.11 µM
- TGI (A549 NSCLC): 14.6 µM
- TGI (CCRF-CEM leukemia): 0.555 µM
- GI50 (HCC-2998 colon): 5.14 µM
- TGI (HCC-2998 colon): 5.67 µM and 16.7 µM
- TGI (LOX IMVI melanoma): 1.92 µM
- GI50 (M14 melanoma): 2.86 µM
- TGI (M14 melanoma): 15.1 µM
- GI50 (NCI-H460 lung): 3.42 µM
- TGI (NCI-H460 lung): 5 µM and 13.9 µM
- GI50 (NCI-H522 lung): 0.157 µM
- TGI (NCI-H522 lung): 2.78 µM and 0.342 µM
- GI50 (SK-MEL-5 melanoma): 5.33 µM
- TGI (SK-MEL-5 melanoma): 17.8 µM
- TGI (SN12C renal): 2.18 µM and 2.99 µM

SMILES: O=S1(=O)NCCCN1CCNc1nccc(-c2c(-c3cccc(O)c3)nc3sccn23)n1
- GI50 (786-0 renal): 14.4 µM
- TGI (786-0 renal): > 100 µM
- GI50 (A549 NSCLC): 42.5 µM
- TGI (A549 NSCLC): > 100 µM
- GI50 (CCRF-CEM leukemia): 13.5 µM
- TGI (CCRF-CEM leukemia): > 100 µM
- GI50 (HCC-2998 colon): 31.3 µM
- TGI (HCC-2998 colon): > 92 µM
- GI50 (LOX IMVI melanoma): 2.46 µM
- TGI (LOX IMVI melanoma): 24 µM
- GI50 (M14 melanoma): 0.366 µM
- TGI (M14 melanoma): 15.5 µM
- GI50 (NCI-H460 lung): 21.5 µM
- TGI (NCI-H460 lung): > 100 µM
- GI50 (NCI-H522 lung): 14.6 µM
- TGI (NCI-H522 lung): 80.7 µM
- GI50 (SK-MEL-5 melanoma): 1.71 µM
- TGI (SK-MEL-5 melanoma): 17.3 µM
- GI50 (SN12C renal): 10.2 µM
- TGI (SN12C renal): > 100 µM

SMILES: CCN(CC)CCNC(=O)c1c(C)[nH]c(/C=C2\C(=O)Nc3ccc(F)cc32)c1C
- GI50 (786-0 renal): 4.13 µM and 3.07 µM and 2.3 µM
- TGI (786-0 renal): > 10 µM and 6.16 µM and 7.76 µM
- GI50 (A549 NSCLC): 5.52 µM and 2.97 µM and 3.85 µM
- TGI (A549 NSCLC): > 10 µM and 6.44 µM and 17.6 µM
- GI50 (CCRF-CEM leukemia): 5.62 µM and 6.48 µM and 1.89 µM
- TGI (CCRF-CEM leukemia): > 10 µM and 20 µM and 8.85 µM
- TGI (HCC-2998 colon): > 10 µM and 7.03 µM and 3.06 µM
- GI50 (LOX IMVI melanoma): 1.29 µM and 2.29 µM and 1.32 µM
- TGI (LOX IMVI melanoma): 2.92 µM and 5.01 µM and 3 µM
- GI50 (M14 melanoma): 0.574 µM and 1.03 µM and 0.687 µM
- TGI (M14 melanoma): 2.33 µM and 3.56 µM and 2.23 µM
- GI50 (NCI-H460 lung): 2 µM and 2.19 µM
- TGI (NCI-H460 lung): > 10 µM and 5.78 µM and 13.1 µM
- GI50 (NCI-H522 lung): 6.2 µM and 3.52 µM and 2.73 µM
- TGI (NCI-H522 lung): > 10 µM and 6.92 µM and 6.1 µM
- GI50 (SK-MEL-5 melanoma): 1.66 µM and 2.88 µM and 1.5 µM
- TGI (SK-MEL-5 melanoma): 4.5 µM and 5.62 µM and 2.92 µM
- GI50 (SN12C renal): 1.95 µM and 1.24 µM and 2.23 µM
- TGI (SN12C renal): > 10 µM and 20 µM and 16.2 µM

SMILES: CCN(CC)CC(=O)N1CCc2c([nH]c3ccccc23)C1c1cccnc1 (stereo unspecified)
- TGI (786-0 renal): > 100 µM
- TGI (A549 NSCLC): > 100 µM
- TGI (CCRF-CEM leukemia): > 100 µM
- TGI (HCC-2998 colon): > 100 µM
- TGI (LOX IMVI melanoma): > 100 µM
- TGI (M14 melanoma): > 100 µM
- TGI (NCI-H460 lung): > 100 µM
- TGI (NCI-H522 lung): > 100 µM
- TGI (SK-MEL-5 melanoma): > 100 µM
- TGI (SN12C renal): > 100 µM

SMILES: CC(=O)[CH-]C(C)=O.[CH2-]C.[CH2-]C.[Tl+3]
- GI50 (786-0 renal): > 100 µM
- TGI (786-0 renal): > 100 µM
- GI50 (A549 NSCLC): > 100 µM
- TGI (A549 NSCLC): > 100 µM
- GI50 (CCRF-CEM leukemia): > 100 µM
- TGI (CCRF-CEM leukemia): > 100 µM
- GI50 (HCC-2998 colon): > 100 µM
- TGI (HCC-2998 colon): > 100 µM
- GI50 (LOX IMVI melanoma): > 100 µM
- TGI (LOX IMVI melanoma): > 100 µM
- GI50 (M14 melanoma): > 100 µM
- TGI (M14 melanoma): > 100 µM
- GI50 (NCI-H460 lung): > 100 µM
- TGI (NCI-H460 lung): > 100 µM
- GI50 (NCI-H522 lung): > 100 µM
- TGI (NCI-H522 lung): > 100 µM
- GI50 (SK-MEL-5 melanoma): > 100 µM
- TGI (SK-MEL-5 melanoma): > 100 µM
- GI50 (SN12C renal): > 100 µM
- TGI (SN12C renal): > 100 µM

SMILES: CNC(SC)=C1C(=O)OC(C)(C)OC1=O
- TGI (786-0 renal): > 100 µM
- TGI (A549 NSCLC): > 100 µM
- TGI (CCRF-CEM leukemia): > 100 µM
- TGI (HCC-2998 colon): > 100 µM
- TGI (LOX IMVI melanoma): > 100 µM
- TGI (M14 melanoma): > 100 µM
- TGI (NCI-H460 lung): > 100 µM
- TGI (NCI-H522 lung): > 100 µM
- TGI (SK-MEL-5 melanoma): > 100 µM
- TGI (SN12C renal): > 100 µM

SMILES: CCC1=C[C@@H]2CN(C1)Cc1c([nH]c3ccccc13)[C@@](C(=O)OC)(c1cc3c(cc1OC)N(C)[C@H]1[C@@](O)(C(=O)OC)[C@H](OC(C)=O)[C@]4(CC)[C@@H]5C[C@@H]5CN5CC[C@]31[C@@H]54)C2
- GI50 (786-0 renal): < 0.005 µM and 0.0139 µM
- TGI (786-0 renal): 1.58 µM and 14.2 µM
- GI50 (A549 NSCLC): < 0.005 µM
- TGI (A549 NSCLC): 5.95 µM and 12.2 µM
- GI50 (CCRF-CEM leukemia): < 0.005 µM
- GI50 (HCC-2998 colon): < 0.005 µM and 0.0211 µM
- GI50 (LOX IMVI melanoma): < 0.005 µM
- GI50 (M14 melanoma): < 0.005 µM and 0.0119 µM
- GI50 (NCI-H460 lung): < 0.005 µM
- TGI (NCI-H460 lung): 5.05 µM and 11.6 µM
- GI50 (NCI-H522 lung): < 0.005 µM
- TGI (NCI-H522 lung): < 0.005 µM
- GI50 (SK-MEL-5 melanoma): < 0.005 µM and 0.017 µM
- TGI (SK-MEL-5 melanoma): 0.327 µM and 1.77 µM
- TGI (SN12C renal): 7.54 µM and 18.5 µM

SMILES: C[C@H](Cn1ncnn1)Nc1ncc2cc(Oc3ccc(F)cc3F)c(=O)n(C)c2n1
- GI50 (786-0 renal): > 25 µM
- TGI (786-0 renal): > 25 µM
- GI50 (A549 NSCLC): > 25 µM
- TGI (A549 NSCLC): > 25 µM
- GI50 (CCRF-CEM leukemia): > 25 µM
- TGI (CCRF-CEM leukemia): > 25 µM
- GI50 (HCC-2998 colon): > 25 µM
- TGI (HCC-2998 colon): > 25 µM
- GI50 (LOX IMVI melanoma): > 25 µM
- TGI (LOX IMVI melanoma): > 25 µM
- GI50 (M14 melanoma): > 25 µM
- TGI (M14 melanoma): > 25 µM
- GI50 (NCI-H460 lung): > 25 µM
- TGI (NCI-H460 lung): > 25 µM
- GI50 (NCI-H522 lung): > 25 µM
- TGI (NCI-H522 lung): > 25 µM
- GI50 (SK-MEL-5 melanoma): > 25 µM
- TGI (SK-MEL-5 melanoma): > 25 µM
- GI50 (SN12C renal): > 25 µM
- TGI (SN12C renal): > 25 µM
